Four molecules from US11273172B2, “Synergistic combination of oligonucleotides and chemotherapeutic for treating cancer” (THE BOARD OF TRUSTEES OF THE UNIVERSITY OF ILLINOIS, priority 2017, dated 2022) can be followed below.

Values joined by “and” are separate entries in the source; they are usually repeats but may differ in a detail not shown here. Equal entries are not always repeated.

Common to all, as to test: MTT cell death assay, chemotherapeutic with and without MADD siRNA knockdown
For data set [1], the system named is C643 thyroid cancer cells. It is filed as cell-based, human. To be noted: Sorafinib 0.975 μM, siRNA 10 nM, 48 hours post Sorafinib treatment. How it is done:
Cells are cultured and maintained at 37° C. in a humidified atmosphere containing 5% CO2 as described above. On Day 0, Cells are seeded in […] tissue culture dishes (Corning; Cat Number: 353003) to attain 60-70% confluence. In parallel, cells are also seeded in one 96-well plate (Corning; Cat number: 353072) for analysis of survival before reseeding. After 12-18 hours (Day 1), cells are transfected with Scramble or MADD siRNA at 10 nM concentration. The sequences of siRNAs (double-stranded) used are:
(§1) On Day 4, when cells are properly adhered and retained their shape in 96-well plates, drugs are added. All drugs are diluted in complete media on the same day prior to the addition to the cells. In untreated cells, media is replaced with complete media. Two hundred μl volume of media (with or without drugs) is used for the drug treatment assay. Plates are incubated 24 hours, 48 hours and 72 hours at 37° C. in humidified CO2 incubator.
(§2) An MTT assay is performed to determine relative survival after drug treatment as described above. MTT (3-[4,5-Dimethylthiazol-2-yl]-2,5-diphenyltetrazolium bromide; Thiazolyl blue) is purchased from Sigma Aldrich (Cat number: M5655). MTT is dissolved in sterile DPBS at the concentration of 5 mg/ml and filtered through 0.45 μM syringe filter (Corning; Cat number: 431220). Ten μl of MTT solution is added per well of 96-well plate. Plates are incubated for 2 hours at 37° C. in the humidified CO2 incubator. After 2 hours, media is aspirated using vacuum inside the biosafety hood. Purple colored crystals formed in viable cells are dissolved by adding 100 μl of Dimethyl sulfoxide (Thermo Fisher Scientific; Cat number D128-500) Plates are kept on shaker for 10 minutes for compete dissolution of crystals and absorbance is recorded at 595 nm using Bio-Rad iMark microplate reader. Data is analyzed in MICROSOFT EXCEL® software. Relative survival is calculated with respect to absorbance of control (untreated cells) to determine the effect of transfection as well as combination treatment.
(§3) Each data set takes into account any spontaneous cell death which is observed upon transfection with Scramble siRNA; the amount of spontaneous cell death from Scramble siRNA transfection (baseline) is subtracted from the amount of cell death observed in each siRNA transfection reaction to yield a Net Percent (Net %) cell death after accounting for Scrambled siRNA-induced cell death.

Data set [2] deals with AGS gastric adenocarcinoma cells. It counts as cell-based. To be noted: siRNA 10 nM. On the procedure: (§4) Cells are cultured and maintained at 37° C. in a humidified atmosphere containing 5% CO2 as described above. […] After 12-18 hours (Day 1), cells are transfected with Scramble or MADD siRNA at 10 nM concentration. The sequences of siRNAs (double-stranded) used are:
as §1
as §2, with “MTT is dissolved in sterile DPBS at the concentration of 5 mg/ml and filtered through 0.45 μM syringe filter (Corning; Cat number: 431220).” left out
as §3
(§5) Cells are cultured and maintained at 37° C. in a humidified atmosphere containing 5% CO2 as described above. […] After 12-18 hours (Day 1), cells are transfected with Scramble or MADD siRNA at 10 nM concentration. The sequences of siRNAs (double stranded) used are:
as §2, with “MTT is dissolved in sterile DPBS at the concentration of 5 mg/ml and filtered through 0.45 μM syringe filter (Corning; Cat number: 431220).” left out, “D128-500).” for “D128-500)”
(§6) On Day 4, when cells are properly adhered and retained their shape in 96-well plates, drugs are added. All drugs are diluted in complete media on the same day prior to the addition to the cells. In untreated cells, media is replaced with complete media. Two hundred μl volume of media (with or without drugs) is used for the drug treatment assay. Plates are incubated 24 h, 48 h and 72 hours at 37° C. in humidified CO2 incubator.

The test system of data set [3] is PLC/PRF/5 hepatic cancer cells. It is filed as cell-based. To be noted: siRNA 10 nM. How it is done: as §4, §1
as §2, with “MTT is dissolved in sterile DPBS at the concentration of 5 mg/ml and filtered through 0.45 μM syringe filter (Corning; Cat number: 431220).” left out
as §3, §5
as §2, with “MTT is dissolved in sterile DPBS at the concentration of 5 mg/ml and filtered through 0.45 μM syringe filter (Corning; Cat number: 431220).” left out, “D128-500).” for “D128-500)”
as §6

Setting [4] is: 5-flurouracil 25 μM, 72 hours post 5-flurouracil treatment.
[5] abbreviates: Gemcitabine 1 μM, 48 hours post Gemcitabine treatment.
The mark [6] stands for this setting: Sorafinib 0.625 μM, 48 hours post Sorafinib treatment.
Setting [7] is: TRAIL 6.25 ng/ml, 72 hours post TRAIL treatment.
Where [8] appears, read: Cisplatin 1.875 μM, 24 hours post Cisplatin treatment.
The mark [9] stands for this setting: Gemcitabine 0.03125 μM, 24 hours post Gemcitabine treatment.
The mark [10] stands for this setting: Sorafinib 0.375 μM, 24 hours post Sorafinib treatment.
Setting [11] is: TRAIL 50 ng/ml, 24 hours post TRAIL treatment.

Turning to “MADD siRNA: siRNA targeting exon 13L of the MADD splice variant of the IG20 gene; SEQ ID NO: 4, 5′-GAUUGUCAUAGAUUCGCCGTT-3′ (chemistry not given here)”, the “Net % cell death after accounting for Scrambled siRNA” value (shortened to “Net % cell death after accounting”) was 13% and 14 − 1 = 13% in data set [1]; 5% and 14 − 9 = 5% in data set [2] (setting [5]); 5% and 14 − 9 = 5% in data set [2] (setting [6]); 20% and 25 − 5 = 20% in data set [3] (setting [8]); 20% and 25 − 5 = 20% in data set [3] (setting [9]); 20% and 25 − 5 = 20% in data set [3] (setting [10]). Also, in data set [3] (setting [11]), the “Net % cell death after accounting” value was 20% and 25 − 5 = 20%. Besides, the “Observed % Cell death” value in data set [1] is recorded as 14%; in data set [2] (setting [4]) it was 20%; in data set [2] (setting [5]), 14%; in data set [2] (setting [6]) it was 14%; in data set [2] (setting [7]), 20%; in data set [3] (setting [8]), 25%. The “Observed % Cell death” value in data set [3] (setting [9]), in data set [3] (setting [10]) and in data set [3] (setting [11]) was 25% each time.

Consider `CNC(=O)c1cc(Oc2ccc(NC(=O)Nc3ccc(Cl)c(C(F)(F)F)c3)cc2)ccn1` [Sorafinib], for which the “Net % cell death after accounting” value is on record as 3% in data set [1], 12% in data set [2] (setting [6]) and 13% in data set [3] (setting [10]). Besides, the “Observed % Cell death” value in data set [1] worked out at 3%; in data set [2] (setting [6]) it was 12%; in data set [3] (setting [10]) it was 13%.

For “Scrambled siRNA: non-specific Scramble siRNA, negative control; SEQ ID NO: 5, 5′-UUGCUAAGCGUCGGUCAAUTT-3′ (chemistry not given here)”, the “Net % cell death after accounting” value is on record as 1 − 1 = 0% in data set [1]; 17 − 17 = 0% in data set [2] (setting [4]); 9 − 9 = 0% in data set [2] (setting [5]); 9 − 9 = 0% in data set [2] (setting [6]); 17 − 17 = 0% in data set [2] (setting [7]); 5 − 5 = 0% in data set [3] (setting [8]). In addition, the “Net % cell death after accounting” value in data set [3] (setting [9]), in data set [3] (setting [10]) and in data set [3] (setting [11]) was 5 − 5 = 0% throughout. Also, the “Observed % Cell death” value came out at 1% in data set [1]; 17% in data set [2] (setting [4]); 9% in data set [2] (setting [5]); 9% in data set [2] (setting [6]); 17% in data set [2] (setting [7]); 5% in data set [3] (setting [8]). The “Observed % Cell death” value in data set [3] (setting [9]), in data set [3] (setting [10]) and in data set [3] (setting [11]) was 5% throughout.

B1: TRAIL: cytotoxic protein which induces apoptosis in tumor cells, but not in normal cells (protein, UniProt P50591 1-281, looked up)
Tumor necrosis factor ligand …: MAMMEVQGGPSLGQTCVLIVIFTVLLQSLCVAVTYVYFTNELKQMQDKYSKSGIACFLKEDDSYWDPNDEESMNSPCWQVKWQLRQLVRKMILRTSEETISTVQEKQQNISPLVRERGPQRVAAHITGTRGRSNTLSSPNSKNEKALGRKINSWESSRSGHSFLSNLHLRNGELVIHEKGFYYIYSQTYFRFQEEIKENTKNDKQMVQYIYKYTSYPDPILLMKSARNSCWSKDAEYGLYSIYQGGIFELKENDRIFVSVTNEHLIDMDHEASFFGAFLVG
Regarding B1, in data set [2] (setting [7]), the “Net % cell death after accounting” value is 7% and the “Observed % Cell death” value worked out at 7%. In data set [3] (setting [11]), the “Net % cell death after accounting” value came out at 0% and the “Observed % Cell death” value was 0%.
